Test results: ChEMBL document CHEMBL4825722, “Discovery of Potent Selective Nonzinc Binding Autotaxin Inhibitor BIO-32546” (ACS Med Chem Lett, 2021)

Experiments:
[1] = Tmax in dog at 1.0 mg/kg, po; type: ADME, organism-based, Canis lupus familiaris; details: in vivo
[2] = Drug concentration in Sprague-Dawley rat at 0.3 mg/kg, po after 6 hrs by LC-MS/MS analysis; type: ADME, organism-based; details: in vivo, read-out: Drug uptake
Rattus norvegicus [3] = test: Effect on Sprague-Dawley rat CFA inflammatory […] model assessed as reduction in 20:4 LPA level at 10 mg/kg, po after 6 hrs by LC-MS/MS analysis; type: functional; design: scale not given: the % may be the effect or the level left
[4] = Drug concentration in Sprague-Dawley rat at 10 mg/kg, po after 6 hrs by LC-MS/MS analysis; type: ADME, organism-based; details: in vivo, read-out: Drug uptake
[5] = Cmax in C57BL/6 mouse brain at 2.32 mg/kg, iv; type: ADME, organism-based; design: route intravenous, dose 2.32 mg/kg
Cytochrome P450 2C19 = Cytochrome P450 2C19 (Homo sapiens, UniProt P33261); test: Inhibition of CYP2C19 in human liver microsomes incubated for 30 mins in presence of NADPH by LC-MS/MS analysis; type: ADME
Cytochrome P450 2C19, sequence (P33261 whole entry): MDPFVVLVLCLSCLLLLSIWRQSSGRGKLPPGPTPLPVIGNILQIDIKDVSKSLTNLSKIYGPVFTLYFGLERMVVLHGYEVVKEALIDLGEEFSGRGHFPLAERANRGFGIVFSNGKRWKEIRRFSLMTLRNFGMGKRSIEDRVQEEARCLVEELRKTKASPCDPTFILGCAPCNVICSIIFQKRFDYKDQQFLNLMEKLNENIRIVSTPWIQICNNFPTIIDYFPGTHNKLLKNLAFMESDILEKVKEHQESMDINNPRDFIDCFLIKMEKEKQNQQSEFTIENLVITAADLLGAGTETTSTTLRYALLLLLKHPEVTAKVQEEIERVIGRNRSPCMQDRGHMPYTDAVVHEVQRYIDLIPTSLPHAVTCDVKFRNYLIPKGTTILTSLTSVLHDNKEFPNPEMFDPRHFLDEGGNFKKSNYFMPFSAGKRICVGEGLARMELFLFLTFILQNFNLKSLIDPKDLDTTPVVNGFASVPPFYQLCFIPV

[6] = target: Sphingosine 1-phosphate receptor 1 (Homo sapiens, UniProt P21453); test: Inhibition of S1P1 (unknown origin)
Sphingosine 1-phosphate receptor 1, sequence (P21453 whole entry): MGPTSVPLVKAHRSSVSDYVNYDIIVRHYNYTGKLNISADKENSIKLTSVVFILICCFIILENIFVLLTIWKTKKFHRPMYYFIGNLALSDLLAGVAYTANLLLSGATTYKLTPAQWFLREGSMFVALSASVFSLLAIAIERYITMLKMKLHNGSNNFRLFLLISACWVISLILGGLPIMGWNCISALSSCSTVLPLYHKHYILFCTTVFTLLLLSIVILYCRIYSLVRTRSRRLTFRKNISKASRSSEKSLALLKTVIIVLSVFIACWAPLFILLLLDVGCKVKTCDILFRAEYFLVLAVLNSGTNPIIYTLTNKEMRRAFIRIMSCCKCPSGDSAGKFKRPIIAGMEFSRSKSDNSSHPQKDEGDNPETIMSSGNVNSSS

[7] = Protein binding in C57BL/6 mouse brain assessed as unbound fraction; type: ADME, tissue-based
Cytochrome P450 3A4 = Cytochrome P450 3A4 (Homo sapiens, UniProt P08684); test: Inhibition of CYP3A4 in human liver microsomes incubated for 15 mins in presence of NADPH by LC-MS/MS analysis; type: ADME
Cytochrome P450 3A4, sequence (P08684 whole entry): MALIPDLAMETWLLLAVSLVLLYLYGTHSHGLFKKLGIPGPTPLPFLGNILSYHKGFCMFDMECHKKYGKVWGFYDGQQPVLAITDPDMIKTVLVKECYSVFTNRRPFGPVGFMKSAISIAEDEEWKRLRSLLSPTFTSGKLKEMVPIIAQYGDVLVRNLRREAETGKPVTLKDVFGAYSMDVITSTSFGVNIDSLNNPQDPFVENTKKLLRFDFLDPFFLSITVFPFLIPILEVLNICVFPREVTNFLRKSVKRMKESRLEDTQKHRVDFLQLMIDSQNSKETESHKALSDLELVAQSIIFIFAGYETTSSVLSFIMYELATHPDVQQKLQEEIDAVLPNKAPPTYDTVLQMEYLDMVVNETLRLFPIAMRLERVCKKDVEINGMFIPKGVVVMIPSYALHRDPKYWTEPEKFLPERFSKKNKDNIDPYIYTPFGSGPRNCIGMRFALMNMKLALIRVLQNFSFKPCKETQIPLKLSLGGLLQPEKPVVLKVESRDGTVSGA

Cytochrome P450 2D6 = Cytochrome P450 2D6 (Homo sapiens, UniProt P10635); test: Inhibition of CYP2D6 in human liver microsomes incubated for 15 mins in presence of NADPH by LC-MS/MS analysis; type: ADME
Cytochrome P450 2D6, sequence (P10635 whole entry): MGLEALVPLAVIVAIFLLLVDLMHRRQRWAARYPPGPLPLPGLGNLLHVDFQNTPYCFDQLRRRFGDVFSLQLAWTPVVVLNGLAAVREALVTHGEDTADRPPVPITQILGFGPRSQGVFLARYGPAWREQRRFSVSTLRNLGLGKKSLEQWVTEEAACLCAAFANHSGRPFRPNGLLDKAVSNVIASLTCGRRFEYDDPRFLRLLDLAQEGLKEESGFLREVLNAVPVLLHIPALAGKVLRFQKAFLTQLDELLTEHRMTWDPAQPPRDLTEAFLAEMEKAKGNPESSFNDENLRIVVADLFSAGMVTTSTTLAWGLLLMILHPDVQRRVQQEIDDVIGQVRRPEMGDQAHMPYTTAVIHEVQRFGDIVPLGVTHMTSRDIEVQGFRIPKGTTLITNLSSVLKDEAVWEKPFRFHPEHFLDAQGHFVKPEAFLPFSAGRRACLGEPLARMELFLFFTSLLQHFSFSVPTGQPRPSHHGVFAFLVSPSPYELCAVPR

[8] = target: T1, Sphingosine 1-phosphate receptor 4 (Homo sapiens, UniProt O95977); test: Inhibition of S1P4 (unknown origin)
T1 sequence (O95977 whole entry): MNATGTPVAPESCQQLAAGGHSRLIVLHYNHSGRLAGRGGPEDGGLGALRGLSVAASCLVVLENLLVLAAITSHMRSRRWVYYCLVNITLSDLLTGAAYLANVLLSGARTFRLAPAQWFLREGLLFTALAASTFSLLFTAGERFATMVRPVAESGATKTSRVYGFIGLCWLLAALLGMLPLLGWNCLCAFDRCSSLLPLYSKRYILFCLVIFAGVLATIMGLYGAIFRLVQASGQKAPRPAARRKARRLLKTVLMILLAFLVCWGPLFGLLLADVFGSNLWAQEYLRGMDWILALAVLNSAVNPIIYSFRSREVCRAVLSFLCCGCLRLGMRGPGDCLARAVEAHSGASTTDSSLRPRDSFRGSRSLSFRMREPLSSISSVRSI

[9] = Clearance in dog at 0.2 mg/kg, iv; type: ADME, organism-based, Canis lupus familiaris; details: in vivo
[10] = Half life in cynomolgus monkey at 0.2 mg/kg, iv; type: ADME, organism-based, Macaca fascicularis; details: in vivo
[11] = target: Lysophosphatidic acid receptor 2 (Homo sapiens, UniProt Q9HBW0); test: Inhibition of LPA2 (unknown origin)
Lysophosphatidic acid receptor 2, sequence (Q9HBW0 whole entry): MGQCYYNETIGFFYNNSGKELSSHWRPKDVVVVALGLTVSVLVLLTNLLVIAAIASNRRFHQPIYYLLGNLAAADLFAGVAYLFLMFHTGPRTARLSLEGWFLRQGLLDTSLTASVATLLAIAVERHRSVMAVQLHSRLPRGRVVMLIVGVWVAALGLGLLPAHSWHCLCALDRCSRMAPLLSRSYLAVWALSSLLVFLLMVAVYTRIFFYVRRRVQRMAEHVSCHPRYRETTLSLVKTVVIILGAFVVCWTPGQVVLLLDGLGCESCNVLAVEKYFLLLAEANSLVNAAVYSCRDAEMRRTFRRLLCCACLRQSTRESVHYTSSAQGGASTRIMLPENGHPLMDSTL

[12] = Clearance in cynomolgus monkey at 0.2 mg/kg, iv; type: ADME, organism-based, Macaca fascicularis; details: in vivo
[13] = Volume of distribution at steady state in rat at 1.0 mg/kg, iv; type: ADME, organism-based; details: in vivo, read-out: Vdss
[14] = AUC (0 to 24 hrs) in C57BL/6 mouse brain at 2.32 mg/kg, iv; type: ADME, organism-based; design: time < 24 hr, route intravenous, dose 2.32 mg/kg
[15] = Half life in C57BL/6 mouse plasma at 2.32 mg/kg; type: ADME, organism-based
[16] = AUC (0 to 24 hrs) in cynomolgus monkey at 1.0 mg/kg, po; type: ADME, organism-based, Macaca fascicularis; design: time < 24 hr, route oral, dose 1 mg/kg; details: in vivo
[17] = Apparent permeability across basolateral to apical side in human Caco-2 cells incubated for 120 mins by lucifer yellow based LC-MS/MS analysis
Rattus norvegicus [18] = test: Effect on po dosed Sprague-Dawley rat CFA inflammatory pain model assessed as reduction in LPA level administered day 2 post CFA challenge and measured after 6 hrs by LC-MS/MS analysis; details: dose 0.1-10 mg/kg
Cytochrome P450 2C9 = Cytochrome P450 2C9 (Homo sapiens, UniProt P11712); test: Inhibition of CYP2C9 in human liver microsomes incubated for 15 mins in presence of NADPH by LC-MS/MS analysis; type: ADME
Cytochrome P450 2C9, sequence (P11712 whole entry): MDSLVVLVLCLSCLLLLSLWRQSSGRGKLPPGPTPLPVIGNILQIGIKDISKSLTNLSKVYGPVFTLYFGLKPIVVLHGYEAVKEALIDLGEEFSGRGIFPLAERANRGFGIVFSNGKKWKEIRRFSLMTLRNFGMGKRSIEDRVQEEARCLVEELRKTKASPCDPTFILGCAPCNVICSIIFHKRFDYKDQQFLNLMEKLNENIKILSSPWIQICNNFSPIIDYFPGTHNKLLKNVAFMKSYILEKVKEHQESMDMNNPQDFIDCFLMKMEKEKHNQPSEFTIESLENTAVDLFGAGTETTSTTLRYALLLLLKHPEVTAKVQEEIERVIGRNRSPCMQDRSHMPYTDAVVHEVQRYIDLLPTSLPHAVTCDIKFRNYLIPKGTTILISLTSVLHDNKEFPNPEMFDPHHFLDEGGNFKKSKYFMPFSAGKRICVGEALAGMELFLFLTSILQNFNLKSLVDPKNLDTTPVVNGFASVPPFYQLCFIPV

[19] = Volume of distribution at steady state in C57BL/6 mouse plasma at 2.32 mg/kg; type: ADME, organism-based; details: read-out: Vdss
[20] = Oral bioavailability in cynomolgus monkey at 1.0 mg/kg; type: ADME, organism-based, Macaca fascicularis; details: in vivo
[21] = Apparent permeability across apical to basolateral side in human Caco-2 cells incubated for 120 mins by lucifer yellow based LC-MS/MS analysis
[22] = Drug concentration in Sprague-Dawley rat at 3 mg/kg, po after 6 hrs by LC-MS/MS analysis; type: ADME, organism-based; details: in vivo, read-out: Drug uptake
[23] = AUC (0 to 24 hrs) in rat at 10 mg/kg, po; type: ADME, organism-based; design: time < 24 hr, route oral, dose 10 mg/kg; details: in vivo
[24] = Clearance in C57BL/6 mouse plasma at 2.32 mg/kg; type: ADME, organism-based
[25] = Protein binding in human plasma assessed as unbound fraction at 2 uM by rapid equilibrium dialysis method; type: ADME, cell-free
[26] = AUC (0 to 24 hrs) in dog at 0.2 mg/kg, iv; type: ADME, organism-based, Canis lupus familiaris; design: time < 24 hr, route intravenous, dose 0.2 mg/kg; details: in vivo
[27] = AUC (0 to 24 hrs) in cynomolgus monkey at 0.2 mg/kg, iv; type: ADME, organism-based, Macaca fascicularis; design: time < 24 hr, route intravenous, dose 0.2 mg/kg; details: in vivo
[28] = Clearance in rat at 1.0 mg/kg, iv; type: ADME, organism-based; details: in vivo, time <=24 hrs
[29] = AUC (0 to 24 hrs) in dog at 1.0 mg/kg, po; type: ADME, organism-based, Canis lupus familiaris; design: time < 24 hr, route oral, dose 1 mg/kg; details: in vivo
[30] = target: Sphingosine 1-phosphate receptor 3 (Homo sapiens, UniProt Q99500); test: Inhibition of S1P3 (unknown origin)
Sphingosine 1-phosphate receptor 3, sequence (Q99500 whole entry): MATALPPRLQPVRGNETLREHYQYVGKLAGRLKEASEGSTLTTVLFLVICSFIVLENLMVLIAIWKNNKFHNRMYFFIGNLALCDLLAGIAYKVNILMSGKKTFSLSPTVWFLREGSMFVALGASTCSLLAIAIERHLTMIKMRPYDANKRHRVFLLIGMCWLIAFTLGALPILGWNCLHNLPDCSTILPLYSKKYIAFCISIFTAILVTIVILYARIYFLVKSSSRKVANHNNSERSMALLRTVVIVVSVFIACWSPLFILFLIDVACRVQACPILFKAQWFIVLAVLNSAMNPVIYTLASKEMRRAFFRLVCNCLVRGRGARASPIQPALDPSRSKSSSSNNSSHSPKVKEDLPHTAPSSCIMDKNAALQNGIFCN

[31] = Oral bioavailability in dog at 1.0 mg/kg; type: ADME, organism-based, Canis lupus familiaris; details: in vivo
[32] = Protein binding in C57BL/6 mouse plasma assessed as unbound fraction; type: ADME, cell-free
[33] = Tmax in C57BL/6 mouse brain at 10 mg/kg, po; type: ADME, organism-based
[34] = Drug concentration in Sprague-Dawley rat at 0.1 mg/kg, po after 6 hrs by LC-MS/MS analysis; type: ADME, organism-based; details: in vivo, read-out: Drug uptake
[35] = target: T2, Lysophosphatidic acid receptor 3 (Homo sapiens, UniProt Q9UBY5); test: Inhibition of LPA3 (unknown origin)
T2 sequence (Q9UBY5 whole entry): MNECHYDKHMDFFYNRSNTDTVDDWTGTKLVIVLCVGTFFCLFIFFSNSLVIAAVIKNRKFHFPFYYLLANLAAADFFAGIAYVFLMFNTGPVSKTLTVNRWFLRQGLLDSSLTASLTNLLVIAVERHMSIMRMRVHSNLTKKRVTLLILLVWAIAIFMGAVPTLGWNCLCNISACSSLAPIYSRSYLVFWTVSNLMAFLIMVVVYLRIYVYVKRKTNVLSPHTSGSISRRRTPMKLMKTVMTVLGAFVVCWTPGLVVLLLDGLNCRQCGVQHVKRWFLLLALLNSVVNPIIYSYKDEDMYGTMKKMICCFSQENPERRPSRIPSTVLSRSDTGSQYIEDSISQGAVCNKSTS

[36] = target: Sphingosine 1-phosphate receptor 2 (Homo sapiens, UniProt O95136); test: Inhibition of S1P2 (unknown origin)
Sphingosine 1-phosphate receptor 2, sequence (O95136 whole entry): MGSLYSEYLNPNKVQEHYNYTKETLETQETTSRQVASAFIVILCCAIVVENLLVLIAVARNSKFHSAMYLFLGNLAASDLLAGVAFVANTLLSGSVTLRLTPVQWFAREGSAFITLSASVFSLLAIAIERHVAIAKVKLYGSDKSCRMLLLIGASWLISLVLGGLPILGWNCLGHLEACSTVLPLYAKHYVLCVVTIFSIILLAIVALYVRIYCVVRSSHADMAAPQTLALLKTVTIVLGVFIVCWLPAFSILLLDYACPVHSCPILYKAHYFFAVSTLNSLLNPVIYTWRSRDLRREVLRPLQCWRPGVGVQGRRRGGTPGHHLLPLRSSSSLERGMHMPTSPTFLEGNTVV

[37] = Oral bioavailability in rat at 10 mg/kg; type: ADME, organism-based; details: in vivo

Question: What does the source list for `C[C@@H](c1ccc2ccc(O[C@H]3CC[C@@H](C(F)(F)F)CC3)c(C(F)(F)F)c2c1)N1C2CCC1CC(C(=O)O)C2` (stereo partly specified)?
Answer: Tmax [1]: 2 h; concentration at 6 h [2]: 0.0043 µg/mL; Activity (Rattus norvegicus [3]): 48%; concentration at 6 h [4]: 0.188 µg/mL; Cmax [5]: 0.274 µg/mL; IC50 (Cytochrome P450 2C19): > 10 µM; IC50 [6]: > 10 µM; Fu [7]: 0.096%; IC50 (Cytochrome P450 3A4): > 10 µM; IC50 (Cytochrome P450 2D6): > 10 µM; IC50 [8]: > 10 µM; clearance [9]: 0.102 L/h/kg; half-life [10]: 4 h; IC50 [11]: > 10 µM; clearance [12]: 0.558 L/h/kg; Vd [13]: 3 L/kg; AUC(0-t) at 24 h [14]: 3.02 µg·h/mL; half-life [15]: 4.72 h; AUC(0-t) at 24 h [16]: 0.614 µg·h/mL; Papp B→A at 2 h [17]: 403 nm/s; Activity (Rattus norvegicus [18]): Dose-Dependent Effect; IC50 (Cytochrome P450 2C9): > 10 µM; Vd [19]: 2.36 L/kg; bioavailability [20]: 34%; Papp A→B at 2 h [21]: 168 nm/s; concentration at 6 h [22]: 0.042 µg/mL; AUC(0-t) at 24 h [23]: 3.97 µg·h/mL; clearance [24]: 0.365 L/h/kg; Fu [25]: 0.66%; AUC(0-t) at 24 h [26]: 1.39 µg·h/mL; AUC(0-t) at 24 h [27]: 0.369 µg·h/mL; clearance [28]: 1.74 L/h/kg; AUC(0-t) at 24 h [29]: 6.59 µg·h/mL; IC50 [30]: > 10 µM; bioavailability [31]: 69%; Fu [32]: 0.599%; Tmax [33]: 7 h; concentration at 6 h [34]: 0.00095 µg/mL; IC50 [35]: > 10 µM; IC50 [36]: > 10 µM; bioavailability [37]: 66%
